System: L1210
Assay: In vitro cytotoxic activity against L1210 murine leukemia cells
Format: functional, cell-based
Conditions: Mus musculus

Compound | IC50
COc1cc2c3c(cc4cc(OC)c(OCc5ccccc5)c(OC)c4c3c1)N(C)C2=O | > 10 µM
COc1ccc(CN2C(=O)c3cc(OCc4ccccc4)cc4c3c2cc2cc(OC)c(OCc3ccccc3)c(OC)c24)cc1 | > 100 µM
COc1cc2c3c(cc4cc(OC)c(O)c(OC)c4c3c1)N(C)C2=O | 1.6 µM
COc1cc2c3c(cc4ccc(O)cc4c3c1)N(CCCN(C)C)C2=O | 1.6 µM
COc1ccc2cc3c4c(cc(OC)cc4c2c1)C(=O)N3CCC=O | 5.2 µM
COc1cc2cc3c4c(cccc4c2c(OC)c1O)C(=O)N3CCCCN(C)C | 1.8 µM
COc1cc2cc3c4c(cccc4c2c(OC)c1OCc1ccccc1)C(=O)N3CCCCN(C)C | 10.8 µM
CCN(CC)CCN1C(=O)c2cc(OC)cc3c2c1cc1cc(OC)c(O)c(OC)c13 | 2.3 µM
COc1cc2c3c(cc4cc(OC)c(O)c(OC)c4c3c1)N(CCCN(C)C)C2=O | 5.4 µM
COc1ccc(CN2C(=O)c3cc(OC)cc4c3c2cc2cc(OC)c(OC)c(OC)c24)cc1 | > 10 µM
CCOC(CCCN1C(=O)c2cccc3c2c1cc1cc(OC)c(OCc2ccccc2)c(OC)c13)OCC | 21.2 µM
COc1cc2c3c(cc4cc(OC)c(OCc5ccccc5)c(OC)c4c3c1)N(CCC=O)C2=O | 4.7 µM
COc1ccc(CN2C(=O)c3cc(O)cc4c3c2cc2cc(OC)c(O)c(OC)c24)cc1 | 2.6 µM
CCOC(CCN1C(=O)c2cc(OC)cc3c2c1cc1ccc(OC)cc13)OCC | > 10 µM
COc1ccc(CN2C(=O)c3cc(OC)cc4c3c2cc2cc(OC)ccc24)cc1 | 66.6 µM
COc1cc2c(cc3c4c(cc5c(c42)OCO5)C(=O)N3CCCN(C)C)c(OC)c1OC(C)C | 4.3 µM
CN1C(=O)c2ccc(OCc3ccccc3)c3c2c1cc1cc(OCc2ccccc2)ccc13 | 79.2 µM
CCOC(CCN1C(=O)c2cc3c(c4c2c1cc1c(OC)c(OC(C)C)c(OC)cc14)OCO3)OCC | 16.3 µM
COc1cc2cc3c4c(cccc4c2c(OC)c1OCc1ccccc1)C(=O)N3CCCC=O | 17.6 µM
COc1cc2c(cc3c4c(cc5c(c42)OCO5)C(=O)N3CCC=O)c(OC)c1OC(C)C | 7.8 µM

Source: ChEMBL document CHEMBL1135005, “Synthesis and biological evaluation of aristolactams” (Bioorg Med Chem Lett, 2002)
